# Measured values from ChEMBL document CHEMBL1143001, “Designing active template molecules by combining computational de novo design and human chemist's expertise” (J Med Chem, 2007).
# Active and inactive are the calls of the source. The rule behind the calls is not given here.
# How the values were obtained:
# [1] = target: Phosphodiesterase 3 (Homo sapiens) (UniProt Q14432+Q13370); assay: Inhibition of PDE3 expressed in human platelets at 10 uM
# [2] = target: cGMP-specific 3',5'-cyclic phosphodiesterase (Homo sapiens) (UniProt O76074); assay: Inhibition of PDE5 in human platelet cells at 10 uM; assay type: cell-based
# Rattus norvegicus [3] = species on record: Rattus norvegicus; assay: Inhibition of rat brain adenylyl cyclase at 10 uM
# Bos taurus [4] = species on record: Bos taurus; assay: Inhibition of bovine lung guanylyl cyclase at 10 uM
# Sus scrofa = species on record: Sus scrofa; assay: Inhibition of pig liver catechol-O-methyl transferase at 10 uM
# [5] = target: 4-aminobutyrate aminotransferase, mitochondrial (Rattus norvegicus) (UniProt P50554); assay: Inhibition of rat brain GABA transaminase at 10 uM
# Sequence of 4-aminobutyrate aminotransferase, mitochondrial (Rattus norvegicus) (P50554 28-500 limits assumed): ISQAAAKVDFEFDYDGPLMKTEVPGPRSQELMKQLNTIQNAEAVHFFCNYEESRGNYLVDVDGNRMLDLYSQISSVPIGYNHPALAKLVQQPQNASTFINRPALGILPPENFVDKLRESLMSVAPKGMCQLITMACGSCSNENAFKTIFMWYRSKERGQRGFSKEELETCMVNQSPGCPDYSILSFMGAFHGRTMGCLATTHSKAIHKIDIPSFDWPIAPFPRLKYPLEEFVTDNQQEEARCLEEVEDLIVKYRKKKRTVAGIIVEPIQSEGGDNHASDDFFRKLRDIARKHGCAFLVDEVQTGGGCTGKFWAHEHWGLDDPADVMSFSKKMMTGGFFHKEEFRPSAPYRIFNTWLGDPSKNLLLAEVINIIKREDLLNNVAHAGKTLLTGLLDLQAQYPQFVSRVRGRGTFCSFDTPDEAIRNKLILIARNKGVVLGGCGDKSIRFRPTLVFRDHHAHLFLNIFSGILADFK
# [6] = target: T1, Amine oxidase [flavin-containing] B (Homo sapiens, UniProt P27338); assay: Inhibition of MAOB in human platelets at 10 uM
# T1 sequence (P27338 whole entry): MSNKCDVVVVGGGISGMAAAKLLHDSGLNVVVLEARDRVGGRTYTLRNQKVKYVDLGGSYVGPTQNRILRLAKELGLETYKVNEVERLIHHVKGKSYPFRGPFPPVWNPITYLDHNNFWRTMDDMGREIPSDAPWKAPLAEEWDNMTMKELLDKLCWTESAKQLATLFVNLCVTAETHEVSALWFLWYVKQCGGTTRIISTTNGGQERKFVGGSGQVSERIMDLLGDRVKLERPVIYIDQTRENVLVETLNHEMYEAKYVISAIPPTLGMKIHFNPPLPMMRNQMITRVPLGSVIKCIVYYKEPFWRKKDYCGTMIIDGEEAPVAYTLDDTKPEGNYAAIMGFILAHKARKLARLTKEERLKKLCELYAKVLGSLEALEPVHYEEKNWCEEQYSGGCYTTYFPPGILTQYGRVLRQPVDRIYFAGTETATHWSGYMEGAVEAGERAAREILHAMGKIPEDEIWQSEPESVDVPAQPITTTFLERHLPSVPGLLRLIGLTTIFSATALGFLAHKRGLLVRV
# [7] = target: T2, Phenylethanolamine N-methyltransferase (Bos taurus) (UniProt P10938); assay: Inhibition of bovine adrenal medulla phenylethanolamine-N-methyl transferase at 10 uM; assay type: tissue-based
# T2 sequence (whole entry): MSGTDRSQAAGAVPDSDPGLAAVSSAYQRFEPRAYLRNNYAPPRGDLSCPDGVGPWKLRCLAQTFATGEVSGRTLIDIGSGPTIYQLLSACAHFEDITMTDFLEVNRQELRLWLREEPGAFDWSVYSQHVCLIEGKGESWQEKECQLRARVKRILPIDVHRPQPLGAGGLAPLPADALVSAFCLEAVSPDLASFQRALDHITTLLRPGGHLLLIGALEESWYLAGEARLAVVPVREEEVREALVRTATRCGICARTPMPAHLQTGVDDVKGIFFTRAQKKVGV
# Rattus norvegicus [8] = species on record: Rattus norvegicus; assay: Inhibition of rat striatum tyrosine hydroxylase at 10 uM; assay type: tissue-based
# Canis lupus familiaris = species on record: Canis lupus familiaris; assay: Inhibition of dog kidney (Na+/K+) ATPase at 10 uM
# [9] = target: Muscarinic acetylcholine receptor M5 (Rattus norvegicus) (UniProt P08911); assay: Displacement of radiolabeled atropine from rat brain muscarinic M5 receptor at 10 uM
# Sequence of Muscarinic acetylcholine receptor M5 (Rattus norvegicus) (P08911 whole entry): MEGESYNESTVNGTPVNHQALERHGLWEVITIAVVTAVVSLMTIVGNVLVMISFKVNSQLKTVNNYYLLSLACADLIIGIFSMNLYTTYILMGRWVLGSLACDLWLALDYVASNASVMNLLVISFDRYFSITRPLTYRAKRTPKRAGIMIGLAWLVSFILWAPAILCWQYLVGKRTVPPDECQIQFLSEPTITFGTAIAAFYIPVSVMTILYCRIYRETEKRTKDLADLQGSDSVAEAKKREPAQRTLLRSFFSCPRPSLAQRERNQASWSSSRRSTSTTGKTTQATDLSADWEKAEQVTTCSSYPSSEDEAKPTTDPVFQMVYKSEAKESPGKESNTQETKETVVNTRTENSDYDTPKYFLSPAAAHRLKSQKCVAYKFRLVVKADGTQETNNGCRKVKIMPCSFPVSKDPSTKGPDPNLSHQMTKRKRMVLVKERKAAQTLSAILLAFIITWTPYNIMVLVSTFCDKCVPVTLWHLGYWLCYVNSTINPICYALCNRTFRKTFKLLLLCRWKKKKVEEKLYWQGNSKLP
# Homo sapiens = species on record: Homo sapiens; assay: Displacement of radiolabeled ligand from nicotinic acetylcholine receptor at 10 uM
# [10] = target: Sodium-dependent noradrenaline transporter (Homo sapiens) (UniProt P23975); assay: Displacement of radiolabeled protriptyline from human recombinant NET expressed in CHO cells at 10 uM; assay type: cell-based
# Sequence of Sodium-dependent noradrenaline transporter (Homo sapiens) (P23975 whole entry): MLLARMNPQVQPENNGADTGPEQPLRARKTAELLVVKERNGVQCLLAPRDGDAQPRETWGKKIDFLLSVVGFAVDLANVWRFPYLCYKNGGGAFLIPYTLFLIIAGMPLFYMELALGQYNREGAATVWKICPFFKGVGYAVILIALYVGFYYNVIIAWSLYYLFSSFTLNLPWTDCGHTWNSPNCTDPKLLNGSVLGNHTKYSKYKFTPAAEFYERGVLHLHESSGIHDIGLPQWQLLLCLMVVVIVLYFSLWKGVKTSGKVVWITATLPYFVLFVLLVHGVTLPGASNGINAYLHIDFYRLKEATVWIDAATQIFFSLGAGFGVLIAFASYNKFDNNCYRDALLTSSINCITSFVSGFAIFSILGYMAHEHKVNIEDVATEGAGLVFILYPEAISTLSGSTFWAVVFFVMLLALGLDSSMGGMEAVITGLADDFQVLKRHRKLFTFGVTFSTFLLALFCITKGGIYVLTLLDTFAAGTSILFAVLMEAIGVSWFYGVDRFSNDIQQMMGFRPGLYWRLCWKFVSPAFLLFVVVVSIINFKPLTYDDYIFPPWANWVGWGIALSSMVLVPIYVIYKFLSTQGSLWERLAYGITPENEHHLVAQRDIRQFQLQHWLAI
# [11] = target: Sodium-dependent dopamine transporter (Homo sapiens) (UniProt Q01959); assay: Displacement of radiolabeled BTCP from human recombinant DAT expressed in CHO cells at 10 uM; assay type: cell-based
# [12] = target: Sodium-dependent serotonin transporter (Homo sapiens) (UniProt P31645); assay: Displacement of radiolabeled Imipramine from human recombinant 5HT transporter expressed in HEK293 cells at 10 uM; assay type: cell-based
# Rattus norvegicus [13] = species on record: Rattus norvegicus; assay: Displacement of radiolabeled kainic acid from rat cerebral cortex Kainate receptor at 10 uM; assay type: tissue-based
# [14] = target: Adrenergic receptor alpha-1 (Rattus norvegicus) (UniProt P15823+P23944+P43140); assay: Displacement of radiolabeled prazosin from adrenergic alpha1 receptor in rat cerebral cortex; assay type: tissue-based
# [15] = target: Adrenergic receptor alpha-2 (Rattus norvegicus) (UniProt P22086+P19328+P22909); assay: Displacement of radiolabeled yohimbine from adrenergic alpha-2 receptor in rat cerebral cortex; assay type: tissue-based
# [16] = target: Substance-P receptor (Homo sapiens) (UniProt P25103); assay: Displacement of radiolabeled [Sar9,Met(O2)11]-SP from NK1 receptor expressed in U373MG cells at 10 uM; assay type: cell-based; details: U-373MG ATCC
# Rattus norvegicus [17] = species on record: Rattus norvegicus; assay: Displacement of radiolabeled naloxone from opiate receptor in rat cerebral cortex; assay type: tissue-based
# [18] = target: Serotonin (5-HT) receptor (Rattus norvegicus) (UniProt P35563+P35365+P32305+P31388+Q9JJ16+P28564+P30994+Q62758+P08909+P14842+P30940+P35364+P19327+P28565); assay: Displacement of radiolabeled serotonin from 5-HT receptor in rat cerebral cortex; assay type: tissue-based
# Bos taurus [19] = species on record: Bos taurus; assay: Inhibition of bovine PDE1 at 10 uM
# [20] = target: cGMP-dependent 3',5'-cyclic phosphodiesterase (Homo sapiens) (UniProt O00408); assay: Inhibition of PDE2 expressed in differentiated U937 cells at 10 uM; assay type: cell-based; details: U-937
# Sequence of cGMP-dependent 3',5'-cyclic phosphodiesterase (Homo sapiens) (O00408 whole entry): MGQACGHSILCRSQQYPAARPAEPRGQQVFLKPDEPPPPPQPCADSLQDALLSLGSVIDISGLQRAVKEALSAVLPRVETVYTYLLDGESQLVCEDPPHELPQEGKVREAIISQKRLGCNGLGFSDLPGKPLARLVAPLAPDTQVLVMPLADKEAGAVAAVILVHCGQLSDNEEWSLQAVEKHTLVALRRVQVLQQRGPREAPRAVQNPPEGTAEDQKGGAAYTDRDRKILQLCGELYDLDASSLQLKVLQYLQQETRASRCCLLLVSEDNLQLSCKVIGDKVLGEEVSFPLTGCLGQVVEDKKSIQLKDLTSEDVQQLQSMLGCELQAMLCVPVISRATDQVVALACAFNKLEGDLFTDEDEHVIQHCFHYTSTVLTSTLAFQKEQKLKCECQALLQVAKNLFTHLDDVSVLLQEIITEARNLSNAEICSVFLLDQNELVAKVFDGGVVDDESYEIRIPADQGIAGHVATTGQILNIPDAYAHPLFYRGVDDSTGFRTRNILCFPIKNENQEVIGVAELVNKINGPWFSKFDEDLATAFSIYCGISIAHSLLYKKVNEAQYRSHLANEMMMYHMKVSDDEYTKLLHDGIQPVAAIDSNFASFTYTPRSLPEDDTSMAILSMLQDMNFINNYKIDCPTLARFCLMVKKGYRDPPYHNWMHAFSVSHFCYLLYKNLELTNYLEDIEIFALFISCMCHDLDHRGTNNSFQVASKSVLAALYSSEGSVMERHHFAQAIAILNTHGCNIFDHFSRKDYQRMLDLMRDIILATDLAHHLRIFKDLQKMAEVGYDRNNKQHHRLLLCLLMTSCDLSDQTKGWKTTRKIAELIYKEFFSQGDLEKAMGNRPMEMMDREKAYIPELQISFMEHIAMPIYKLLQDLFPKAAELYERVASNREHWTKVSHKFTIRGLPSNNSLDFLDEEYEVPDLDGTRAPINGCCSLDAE
# [21] = target: Phosphodiesterase 4 (Homo sapiens) (UniProt P27815+Q08499+Q07343+Q08493); assay: Inhibition of PDE4 expressed in U937 cells at 10 uM; assay type: cell-based; details: U-937
# [22] = target: Acetylcholinesterase (Homo sapiens) (UniProt P22303); assay: Inhibition of human recombinant AChE expressed in HEK293 cells at 10 uM; assay type: cell-based
# Sequence of Acetylcholinesterase (Homo sapiens) (P22303 whole entry): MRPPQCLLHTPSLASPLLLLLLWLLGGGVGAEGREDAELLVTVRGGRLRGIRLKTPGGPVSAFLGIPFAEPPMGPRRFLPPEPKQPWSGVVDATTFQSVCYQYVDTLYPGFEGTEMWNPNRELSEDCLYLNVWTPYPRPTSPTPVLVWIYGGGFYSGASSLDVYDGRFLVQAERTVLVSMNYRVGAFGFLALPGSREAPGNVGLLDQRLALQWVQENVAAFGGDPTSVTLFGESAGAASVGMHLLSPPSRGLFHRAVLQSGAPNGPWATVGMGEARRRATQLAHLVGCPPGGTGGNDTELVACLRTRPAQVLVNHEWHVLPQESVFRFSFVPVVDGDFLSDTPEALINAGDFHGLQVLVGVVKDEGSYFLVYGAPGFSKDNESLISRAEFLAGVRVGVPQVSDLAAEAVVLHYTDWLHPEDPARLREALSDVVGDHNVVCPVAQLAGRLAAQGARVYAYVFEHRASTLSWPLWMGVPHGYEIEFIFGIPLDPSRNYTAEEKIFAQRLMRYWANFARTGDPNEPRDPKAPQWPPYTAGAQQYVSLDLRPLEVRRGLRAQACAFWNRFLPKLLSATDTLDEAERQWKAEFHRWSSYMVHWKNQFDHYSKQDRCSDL
# [23] = target: Cannabinoid receptor 1 (Homo sapiens) (UniProt P21554); assay: Displacement of radiolabeled WIN-55212-2 from human CB1 receptor expressed in HEK293 cells at 10 uM; assay type: cell-based
# [24] = target: Muscarinic acetylcholine receptor M2 (Rattus norvegicus) (UniProt P10980); assay: Displacement of radiolabeled atropine from rat brain muscarinic M2 receptor at 10 uM
# Sequence of Muscarinic acetylcholine receptor M2 (Rattus norvegicus) (P10980 whole entry): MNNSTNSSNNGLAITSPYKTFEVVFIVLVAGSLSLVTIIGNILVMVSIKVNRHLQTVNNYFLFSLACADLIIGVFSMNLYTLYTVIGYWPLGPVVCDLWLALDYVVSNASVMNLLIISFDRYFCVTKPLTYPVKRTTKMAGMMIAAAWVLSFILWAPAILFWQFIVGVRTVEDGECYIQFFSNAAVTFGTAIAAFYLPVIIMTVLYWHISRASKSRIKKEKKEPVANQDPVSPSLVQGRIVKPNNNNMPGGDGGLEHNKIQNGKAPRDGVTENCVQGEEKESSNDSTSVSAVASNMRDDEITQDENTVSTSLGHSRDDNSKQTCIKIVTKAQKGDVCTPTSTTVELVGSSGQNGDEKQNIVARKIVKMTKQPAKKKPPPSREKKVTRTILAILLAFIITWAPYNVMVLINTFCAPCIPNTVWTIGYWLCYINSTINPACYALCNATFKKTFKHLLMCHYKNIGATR
# [25] = target: Muscarinic acetylcholine receptor M1 (Rattus norvegicus) (UniProt P08482); assay: Displacement of radiolabeled atropine from rat brain muscarinic M1 receptor at 10 uM
# Sequence of Muscarinic acetylcholine receptor M1 (Rattus norvegicus) (P08482 whole entry): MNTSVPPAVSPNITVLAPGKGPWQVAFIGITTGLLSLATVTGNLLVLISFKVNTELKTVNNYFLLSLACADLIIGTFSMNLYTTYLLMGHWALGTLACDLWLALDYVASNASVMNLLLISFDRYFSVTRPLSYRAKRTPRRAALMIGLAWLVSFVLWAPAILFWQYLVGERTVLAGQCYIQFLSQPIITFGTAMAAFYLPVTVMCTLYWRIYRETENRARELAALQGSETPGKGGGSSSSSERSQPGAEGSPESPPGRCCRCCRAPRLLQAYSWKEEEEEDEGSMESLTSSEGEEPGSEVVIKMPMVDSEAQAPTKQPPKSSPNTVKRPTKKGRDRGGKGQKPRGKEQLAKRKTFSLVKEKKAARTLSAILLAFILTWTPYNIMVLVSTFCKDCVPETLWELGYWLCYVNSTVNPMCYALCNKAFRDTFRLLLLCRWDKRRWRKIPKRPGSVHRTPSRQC
# [26] = target: Muscarinic acetylcholine receptor M3 (Rattus norvegicus) (UniProt P08483); assay: Displacement of radiolabeled atropine from rat brain muscarinic M3 receptor at 10 uM
# Sequence of Muscarinic acetylcholine receptor M3 (Rattus norvegicus) (P08483 whole entry, looked up): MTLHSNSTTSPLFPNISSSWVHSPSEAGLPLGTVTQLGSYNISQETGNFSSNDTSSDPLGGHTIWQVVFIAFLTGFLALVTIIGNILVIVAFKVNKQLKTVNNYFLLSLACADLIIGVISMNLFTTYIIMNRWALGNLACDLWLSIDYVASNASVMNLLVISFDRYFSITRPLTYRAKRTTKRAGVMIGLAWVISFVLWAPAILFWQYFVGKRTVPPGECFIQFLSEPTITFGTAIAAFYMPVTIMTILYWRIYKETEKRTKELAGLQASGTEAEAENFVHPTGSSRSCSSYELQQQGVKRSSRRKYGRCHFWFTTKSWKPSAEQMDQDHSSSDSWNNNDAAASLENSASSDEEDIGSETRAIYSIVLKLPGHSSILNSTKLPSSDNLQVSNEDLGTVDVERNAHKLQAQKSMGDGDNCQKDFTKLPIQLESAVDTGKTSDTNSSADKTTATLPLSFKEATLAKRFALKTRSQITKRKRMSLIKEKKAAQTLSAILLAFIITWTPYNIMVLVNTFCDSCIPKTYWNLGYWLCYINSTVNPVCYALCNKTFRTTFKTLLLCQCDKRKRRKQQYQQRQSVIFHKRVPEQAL
# [27] = target: Muscarinic acetylcholine receptor M4 (Rattus norvegicus) (UniProt P08485); assay: Displacement of radiolabeled atropine from rat brain muscarinic M4 receptor at 10 uM
# [28] = test system: Protein kinase C (Rattus norvegicus); assay: Inhibition of rat brain PKC at 10 uM
SMILES,Activity [1],Activity [2],Activity (Rattus norvegicus [3]),Activity (Bos taurus [4]),Activity (Sus scrofa),Activity [5],Activity [6],Activity [7],Activity (Rattus norvegicus [8]),Activity (Canis lupus familiaris),Activity (Bos taurus [19]),Activity [20],Activity [21],Activity [22],Activity [28],further results
O=C(O)c1ccccc1C1CCCNC1 (centres undefined),inactive,inactive,inactive,inactive,inactive,inactive,Not Active,inactive,inactive,inactive,inactive,inactive,inactive,inactive,inactive,Activity [9]: inactive; Activity (Homo sapiens): inactive; Activity [10]: inactive; Activity [11]: inactive; Activity [12]: inactive; Activity (Rattus norvegicus [13]): inactive; Activity [14]: inactive; Activity [15]: inactive; Activity [16]: inactive; Activity (Rattus norvegicus [17]): inactive; Activity [18]: inactive; Activity [23]: inactive; Activity [24]: inactive; Activity [25]: inactive; Activity [26]: inactive; Activity [27]: inactive
Nc1cccc(-c2ccoc2)c1,inactive,inactive,inactive,inactive,inactive,inactive,Not Active,inactive,inactive,inactive,inactive,inactive,inactive,inactive,inactive,inhibition (Homo sapiens): 42%; inhibition [10]: 80%
NCc1cccc(CC2CCCNC2=O)c1 (centres undefined),inactive,inactive,inactive,inactive,inactive,inactive,Not Active,inactive,inactive,inactive,inactive,inactive,inactive,inactive,inactive,inhibition [9]: 50%; inhibition [24]: 50%; inhibition [25]: 50%; inhibition [26]: 50%; inhibition [27]: 50%
N#Cc1cccc(CN2CCCCC2=O)c1,inactive,inactive,inactive,inactive,inactive,inactive,Not Active,inactive,inactive,inactive,inactive,inactive,inactive,inactive,inactive,–
Nc1ccc(-c2ccoc2)cc1,inactive,inactive,inactive,inactive,inactive,inactive,Not Active,inactive,inactive,inactive,inactive,inactive,inactive,inactive,inactive,inhibition [10]: 77%
OCc1ccccc1C1CCCNC1 (centres undefined),inactive,inactive,inactive,inactive,inactive,inactive,Not Active,inactive,inactive,inactive,inactive,inactive,inactive,inactive,inactive,inhibition (Homo sapiens): 45%; inhibition ([14]; concentration not given here): 47%; inhibition ([15]; concentration not given here): 62%; inhibition (Rattus norvegicus [17]; concentration not given here): 35%; inhibition ([18]; concentration not given here): 39%
N#Cc1cccc(CC2CCCNC2=O)c1 (centres undefined),inactive,inactive,inactive,inactive,inactive,inactive,Not Active,inactive,inactive,inactive,inactive,inactive,inactive,inactive,inactive,–
O=C(O)CCC(=O)Nc1ccc(-c2ccoc2)cc1,inactive,inactive,inactive,inactive,inactive,inactive,Not Active,inactive,inactive,inactive,inactive,inactive,inactive,inactive,inactive,–
